From paper PMC10136135, “Electronic Circular Dichroism Detects Conformational Changes Associated with Proteasome Gating Confirmed Using AFM Imaging” (Biomolecules, 2023)
Where a SMILES comes first, the peptide text is derived from it.

Legend:
[1] = tested on: T1, yWT20S / y20S WT (wild type yeast 20S proteasome); test: ECD spectral change (difference spectrum); format: binding, Saccharomyces cerevisiae; details: 25 nM 20S, 150 mM Tris, 100 mM NaCl, pH 7.6, 22 °C; H2T4 1 µM in text, 10 µM in figure legend; allosteric, gate opening
T1 construct: gene SCL1; 20S core particle, 28 subunits (alpha-beta-beta-alpha heptameric rings); with Proteasome subunit beta type-1; Proteasome subunit beta type-2; Proteasome subunit beta type-3; Proteasome subunit beta type-4; Proteasome subunit beta type-5; Proteasome subunit beta type-6; Proteasome subunit beta type-7

[2] = tested on: T2, h20S (human 20S proteasome); test: AFM imaging of gate conformers; also ECD shift; format: binding; details: 5 mM Tris-HCl pH 7; at least 15 min after addition; control 7 ± 1% open; ECD at 1 µM, 25 nM h20S, pH 7.6, 22 °C; allosteric, gate opening
T2 construct: gene PSMA1; 20S core particle, 28 subunits (alpha-beta-beta-alpha heptameric rings); commercial, Enzo Life Sciences (AFM); H2T4 at the alpha ring gate, Suc-LLVY-MCA at the beta5 (ChT-L) site; with Proteasome subunit beta type-6; Proteasome subunit beta type-7; Proteasome subunit beta type-3; Proteasome subunit beta type-2; Proteasome subunit beta type-1; Proteasome subunit beta type-4

[3] = tested on: T2, h20S (human 20S proteasome); test: AFM imaging of gate conformers; format: binding; details: 5 mM Tris-HCl pH 7, 1% DMSO; beta5 (ChT-L) site

| Structure (SMILES) | ECD spectral change (difference spectrum) [1] | % open conformers at 0.2 μM [2] [%] | % open conformers at 100 μM [3] |
| --- | --- | --- | --- |
| C[n+]1ccc(-c2c3nc(c(-c4cc[n+](C)cc4)c4ccc([nH]4)c(-c4cc[n+](C)cc4)c4nc(c(-c5cc[n+](C)cc5)c5ccc2[nH]5)C=C4)C=C3)cc1 [H2T4, 5,10,15,20-tetrakis-4-N-methylpirydyl porphyrin] | the addition of H2T4 induces changes in the ECD spectra of yWT20S | 22 ± 1.3 | – |
| Cc1cc(=O)oc2cc(NC(=O)[C@H](Cc3ccc(O)cc3)NC(=O)[C@@H](NC(=O)[C@H](CC(C)C)NC(=O)[C@H](CC(C)C)NC(=O)CCC(=O)O)C(C)C)ccc12 [SucLLVY-MCA, succinyl-LeuLeuValTyr-7-amino-4-methylcoumarin] (HELM PEPTIDE1{[O=C(O)CCC(=O)[*:2]].L.L.V.Y.[Cc1cc(=O)oc2cc(N[*:1])ccc12]}$$$$V2.0) | – | – | addition of the model substrate or the porphyrin ligand shifted the conformational equilibrium |
